{"source": "patent US20090111736A1", "about": "“Orally-Absorbed Solid Dose Formulation for Vancomycin” (SRI International, priority 2007, published 2009)", "key": {"rat ileum": {"system": "rat ileum", "experiment": "In vitro mucosal-to-serosal vancomycin transport, modified Ussing chambers, ileum", "format": "in vitro ADME", "conditions": "5 mg/ml vancomycin in HEPES buffer", "text": "(§1) We investigated regional variation in permeation of vancomycin (VCM) across various segments of rat intestine and colon in vitro by mounting isolated segments of rat intestine and colon between horizontal modified Ussing chambers. The effects of drug concentration and of addition of a p-glycoprotein inhibitor or permeation enhancer(s) as formulation additives on VCM permeation were also studied in vitro using segments of rat jejunum.\n(§2) Methods: A modified Ussing system (Easy mount Ussing system, Physiological Instruments Inc., CA, Item # EM-CSYS-8) with eight sets of chambers was used for all in vitro studies; each set consisted of two parallel diffusion chambers, a heating block for temperature control, needle valves for gas flow adjustment and gas mixing, and Ag/AgCl voltage and current electrodes for measuring transepithelial voltage and for passing current.\n(§3) Harvesting of required small intestinal or colon segments of a male rat was performed using experimental procedures described in the literature (Gotoh et al., J Biomol Screen (2005) 10:517-23). The harvested segments of small intestine or colon were mounted on sliders placed between the two horizontal chambers of a modified Ussing system.\n(§4) VCM was dissolved in HEPES buffer pH 7.4 (Table 1) previously saturated with 100% O2 or HEPES buffer containing additives selected from permeation enhancer(s) and/or an efflux transport inhibitor (Table 2) to obtain predetermined concentrations of drug and additive(s).\n(§5) Drug transport across epithelial membranes of harvested rat small intestine and colon segments, in mucosal-to-serosal (M-to-S) direction, was studied using modified Ussing Chambers. Aliquots of HEPES buffer (5 ml) were initially added to both the mucosal and serosal chambers and allowed to equilibrate for 20 minutes. The HEPES buffer in the mucosal chamber was replaced by a study sample containing VCM alone or VCM and selected additive(s) in HEPES buffer, e.g., 5 mg/mL of VCM dissolved in HEPES buffer containing 10% w/w Labrasol®. Aliquots of 0.5 mL buffer solutions were removed periodically from serosal chambers, and replaced with equal volumes of fresh warm (37±2° C.) HEPES buffer previously saturated with 100% O2. To study the effect of additives in the serosal chamber (i.e., quinidine and sodium decanoate), HEPES buffer containing the selected additive was placed in the serosal chamber and replaced with the same buffer composition during sampling.\n(§6) Changes in transepithelial short-circuit current (in micro-Amps) and membrane resistance (in Ohms) as a function of time were monitored continuously during in vitro studies to serve as indicators of tissue viability and drug permeability, respectively. The buffer samples from the receptor chambers were analyzed for VCM content on a high pressure liquid chromatograph (HPLC; Hewlett Packard Model 1100 series).\n(§7) The analysis of VCM samples was performed using a reverse phase gradient HPLC method, with a Hypersil BDS C18 column, 5 μm, 150×4.6 mm., mobile phase consisting of 5 mM potassium phosphate monobasic in water (pH 3) as solvent A and acetonitrile as solvent B at a flow rate of 1 ml/min (Farin et al., J Pharm Biomed Anal (1998) 18:367-72). The eluant was monitored by a UV/diode array detector at 280 nm.\n(§8) To compare data obtained from different in vitro experiments, the apparent permeability coefficients were calculated using the equation: […]\n(§9) Where dQ/dt is the linear appearance rate of mass in receiver compartment, C0 is the initial solute concentration in donor compartment, and A is the surface area (Luo et al., Drug Metab Dispos (2002) 30:763-70)."}, "[1]": {"experiment": "In vitro mucosal-to-serosal vancomycin transport, modified Ussing chambers, ileum", "format": "in vitro ADME, rat", "conditions": "male, rat, pH 7.4, 5 mg/ml, HEPES buffer alone", "text": "as §1, §2, §3, §4, §5, §6, §7, §8, §9"}, "rat duodenum": {"system": "rat duodenum", "experiment": "In vitro mucosal-to-serosal vancomycin transport, modified Ussing chambers, duodenum", "format": "in vitro ADME", "conditions": "5 mg/ml vancomycin in HEPES buffer", "text": "as §1, §2, §3, §4, §5, §6, §7, §8, §9"}, "[2]": {"experiment": "In vitro mucosal-to-serosal vancomycin transport, modified Ussing chambers, duodenum", "format": "in vitro ADME, rat", "conditions": "male, rat, pH 7.4, 5 mg/ml, HEPES buffer alone", "text": "as §1, §2, §3, §4, §5, §6, §7, §8, §9"}, "[3]": {"conditions": "rats, cited from earlier work"}, "[4]": {"conditions": "cited from earlier work"}, "[5]": {"experiment": "In vitro mucosal-to-serosal vancomycin transport, modified Ussing chambers, colon", "format": "in vitro ADME, rat", "conditions": "male, rat, pH 7.4, 5 mg/ml, HEPES buffer alone", "text": "as §1, §2, §3, §4, §5, §6, §7, §8, §9"}, "rat colon": {"system": "rat colon", "experiment": "In vitro mucosal-to-serosal vancomycin transport, modified Ussing chambers, colon", "format": "in vitro ADME", "conditions": "5 mg/ml vancomycin in HEPES buffer", "text": "as §1, §2, §3, §4, §5, §6, §7, §8, §9"}}, "note": "Structures can show the parent of a compound that is named as a salt. Where two headings read alike, the source gives them in different places."}
{"smiles": "CN[C@H](CC(C)C)C(=O)N[C@H]1C(=O)N[C@@H](CC(N)=O)C(=O)N[C@H]2C(=O)N[C@H]3C(=O)N[C@H](C(=O)N[C@H](C(=O)O)c4cc(O)cc(O)c4-c4cc3ccc4O)[C@H](O)c3ccc(c(Cl)c3)Oc3cc2cc(c3O[C@@H]2O[C@H](CO)[C@@H](O)[C@H](O)[C@H]2O[C@H]2C[C@](C)(N)[C@H](O)[C@H](C)O2)Oc2ccc(cc2Cl)[C@H]1O", "note": "[Vancomycin hydrochloride]", "values": [{"measurement": "Ave. Cumulative Amt VCM Released", "setting": "rat ileum; 0.5 hr", "value": "0.00 ± 0.00", "unit": "µg"}, {"measurement": "Ave. Cumulative Amt VCM Released", "setting": "rat ileum; 1.0 hr", "value": "0.00 ± 0.00", "unit": "µg"}, {"measurement": "Ave. Cumulative Amt VCM Released", "setting": "rat ileum; 1.5 hr", "value": "2.55 ± 0.67", "unit": "µg"}, {"measurement": "Ave. Cumulative Amt VCM Released", "setting": "rat ileum; 2.0 hr", "value": "4.31 ± 1.17", "unit": "µg"}, {"measurement": "Ave. Cumulative Amt VCM Released", "setting": "rat ileum; 2.5 hr", "value": "6.33 ± 1.66", "unit": "µg"}, {"measurement": "Papp at 2.5 hr, 5 mg/ml", "setting": "[1]", "value": "0.38 ± 0.05", "unit": "×10⁻⁶ cm/s"}, {"measurement": "Ave. Cumulative Amt VCM Released", "setting": "rat duodenum; 0.5 hr", "value": "0.00 ± 0.00", "unit": "µg"}, {"measurement": "Ave. Cumulative Amt VCM Released", "setting": "rat duodenum; 1.0 hr", "value": "0.00 ± 0.00", "unit": "µg"}, {"measurement": "Ave. Cumulative Amt VCM Released", "setting": "rat duodenum; 1.5 hr", "value": "0.40 ± 0.80", "unit": "µg"}, {"measurement": "Ave. Cumulative Amt VCM Released", "setting": "rat duodenum; 2.0 hr", "value": "2.08 ± 0.87", "unit": "µg"}, {"measurement": "Ave. Cumulative Amt VCM Released", "setting": "rat duodenum; 2.5 hr", "value": "3.51 ± 1.34", "unit": "µg"}, {"measurement": "Papp at 2.5 hr, 5 mg/ml", "setting": "[2]", "value": "0.2 ± 0.05", "unit": "×10⁻⁶ cm/s"}, {"measurement": "absolute bioavailability", "setting": "[3]; oral administration of a water-in-oil-in-water (w/o/w) emulsion, VCM in inner aqueous phase", "value": "About 30%"}, {"measurement": "absolute bioavailability", "setting": "[3]; oral, without any added absorption enhancer or enzyme inhibitor", "value": "less than 5%"}, {"measurement": "solubility in water", "setting": "[4]", "value": "soluble in water"}, {"measurement": "Papp at 2.5 hr, 5 mg/ml", "setting": "[5]", "value": "0.41 ± 0.07", "unit": "×10⁻⁶ cm/s"}, {"measurement": "Ave. Cumulative Amt VCM Released", "setting": "rat colon; 0.5 hr", "value": "0.00 ± 0.00", "unit": "µg"}, {"measurement": "Ave. Cumulative Amt VCM Released", "setting": "rat colon; 1.0 hr", "value": "0.00 ± 0.00", "unit": "µg"}, {"measurement": "Ave. Cumulative Amt VCM Released", "setting": "rat colon; 1.5 hr", "value": "1.93 ± 0.38", "unit": "µg"}, {"measurement": "Ave. Cumulative Amt VCM Released", "setting": "rat colon; 2.0 hr", "value": "4.20 ± 0.99", "unit": "µg"}, {"measurement": "Ave. Cumulative Amt VCM Released", "setting": "rat colon; 2.5 hr", "value": "7.15 ± 1.82", "unit": "µg"}]}
